Measured values from patent US10793568B2, “Hormone receptor modulators for treating metabolic conditions and disorders” (ARDELYX, INC., priority 2016, dated 2020).
Read-outs that look alike come from different tables or passages of the source.

Key:
[1] = target: ligand binding domain of human FXR (Homo sapiens (Human), UniProt Q96RI1); test: FXR ligand binding assay (LanthaScreen TR-FRET, SRC2-2 peptide recruitment); conditions: for pEC50: -log EC50, concentration required to produce 50% activation; for Emax: read-out: % Efficacy
[2] = target: human Farnesoid X receptor ligand-binding domain/Gal4 DNA binding domain chimera (Homo sapiens (Human), UniProt Q96RI1); test: Cell-based assay of FXR activation (FXR-UAS-bla HEK 293T beta-lactamase reporter); conditions: cellular FXR beta-lactamase reporter assay; for Emax: HEK-293T, extent of activation relative to GW4064, read-out: % Efficacy; for EC50: FXR-UAS-bla HEK 293T cells, 16 h, pEC50 = -log EC50
In short: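 HEK 293T cells stably expressing a Gal4-fused human FXR LBD and a UAS-driven beta-lactamase reporter were incubated with serially diluted compounds for 16 h at 37 °C in phenol red-free DMEM with 2% charcoal-stripped FBS. CCF4 FRET read-out: excitation 409 nm, emission 447 nm. pEC50 comes from a 3-parameter logistic fit, and efficacy is given as % of GW4064.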

[3] = extent of activation relative to GW4064

Chain of ligand binding domain of human FXR (Q96RI1 262-486): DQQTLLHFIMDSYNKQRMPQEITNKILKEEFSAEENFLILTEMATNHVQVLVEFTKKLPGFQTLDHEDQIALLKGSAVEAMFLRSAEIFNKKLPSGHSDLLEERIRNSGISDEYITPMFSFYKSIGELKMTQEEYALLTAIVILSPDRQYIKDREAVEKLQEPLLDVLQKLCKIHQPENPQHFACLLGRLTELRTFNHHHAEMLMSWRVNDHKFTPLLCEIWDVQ
Chain of human Farnesoid X receptor ligand-binding domain/Gal4 DNA binding domain chimera (Q96RI1 262-486, change not shown): as the sequence (Q96RI1 262-486) above
Chain of human Farnesoid X receptor ligand-binding domain/Gal4 DNA binding domain chimera (P04386 1-147 partner): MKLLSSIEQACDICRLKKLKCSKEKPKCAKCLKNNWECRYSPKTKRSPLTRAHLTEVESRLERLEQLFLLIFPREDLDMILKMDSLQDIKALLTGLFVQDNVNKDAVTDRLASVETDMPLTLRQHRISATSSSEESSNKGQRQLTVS

Row | Compound | pEC50 [1] | Emax [1, 3] [%] | Emax [2] [%] | EC50 [2] [nM] | Emax [1] [%]
1 | O=C(O)CCc1ccc(N2C[C@@H]3C[C@H]2C[C@H]3OCc2c(-c3c(Cl)cccc3Cl)noc2C2CC2)cc1F [Compound I-155, 3-{4-[(1S,4S,5R)-5-{[5-cyclopropyl-3-(2,6-dichlorophenyl)-1,2-oxazol-4-yl]methoxy}-2-azabicyclo[2.2.1]heptan-2-yl]-2-fluorophenyl}propanoic Acid] | 8.3 | 136 | 102 | 1 | –
2 | CC(C)(Cc1ccc(N2C[C@@H]3C[C@H]2C[C@H]3OCc2c(-c3c(Cl)cccc3Cl)noc2C2CC2)cc1F)C(=O)O [Compound I-156, 3-{4-[(1S,4S,5R)-5-{[5-cyclopropyl-3-(2,6-dichlorophenyl)-1,2-oxazol-4-yl]methoxy}-2-azabicyclo[2.2.1]heptan-2-yl]-2-fluorophenyl}-2,2-dimethylpropanoic Acid] | 7.6 | 128 | 105 | 39.8 | –
3 | O=C(O)CCCc1ccc(N2C[C@@H]3C[C@H]2C[C@H]3OCc2c(-c3c(Cl)cccc3Cl)noc2C2CC2)c(F)c1 [Compound I-157, 4-{4-[(1S,4S,5R)-5-{[5-cyclopropyl-3-(2,6-dichlorophenyl)-1,2-oxazol-4-yl]methoxy}-2-azabicyclo[2.2.1]heptan-2-yl]-3-fluorophenyl}butanoic Acid] | 8.2 | 134 | 100 | 2.51 | –
4 | N#Cc1cc(CCC(=O)O)ccc1N1C[C@@H]2C[C@H]1C[C@H]2OCc1c(-c2c(Cl)cccc2Cl)noc1C1CC1 [Compound I-158, 3-{3-cyano-4-[(1S,4S,5R)-5-{[5-cyclopropyl-3-(2,6-dichlorophenyl)-1,2-oxazol-4-yl]methoxy}-2-azabicyclo[2.2.1]heptan-2-yl]phenyl}propanoic Acid] | 7.6 | 126 | 104 | 6.31 | –
5 | Cc1cccc(Cl)c1-c1noc(C2CC2)c1CO[C@@H]1C[C@@H]2C[C@H]1CN2c1ccc(CCC(=O)O)cc1F [Compound I-159, 3-{4-[(1S,4S,5R)-5-{[3-(2-chloro-6-methylphenyl)-5-cyclopropyl-1,2-oxazol-4-yl]methoxy}-2-azabicyclo[2.2.1]heptan-2-yl]-3-fluorophenyl}propanoic Acid] | 8.2 | 144 | 100 | 1.58 | –
6 | O=C(O)C1CN(Cc2ccc(N3C[C@@H]4C[C@H]3C[C@H]4OCc3c(-c4c(Cl)cccc4Cl)noc3C3CC3)cc2)C1 [Compound I-160, 1-({4-[(1S,4S,5R)-5-{[5-cyclopropyl-3-(2,6-dichlorophenyl)-1,2-oxazol-4-yl]methoxy}-2-azabicyclo[2.2.1]heptan-2-yl]phenyl}methyl)azetidine-3-carboxylic Acid] | 6.9 | 93 | 110 | 1000 | –
7 | O=CN(O)Cc1ccc(N2C[C@@H]3C[C@H]2C[C@H]3OCc2c(-c3c(Cl)cccc3Cl)noc2C2CC2)cc1 [Compound I-161, N-({4-[(1S,4S,5R)-5-{[5-cyclopropyl-3-(2,6-dichlorophenyl)-1,2-oxazol-4-yl]methoxy}-2-azabicyclo[2.2.1]heptan-2-yl]phenyl}methyl)-N-hydroxyformamide] | 6.9 | 134 | 102 | 12.6 | –
8 | Fc1cc(CCc2nn[nH]n2)ccc1N1C[C@@H]2C[C@H]1C[C@H]2OCc1c(-c2c(Cl)cccc2Cl)noc1C1CC1 [Compound I-162, (1S,4S,5R)-5-{[5-cyclopropyl-3-(2,6-dichlorophenyl)-1,2-oxazol-4-yl]methoxy}-2-{2-fluoro-4-[2-(2H-1,2,3,4-tetrazol-5-yl)ethyl]phenyl}-2-azabicyclo[2.2.1]heptane] | 8.1 | 140 | 105 | 6.31 | –
9 | O=C(CCc1ccc(N2C[C@@H]3C[C@H]2C[C@H]3OCc2c(-c3c(Cl)cccc3Cl)noc2C2CC2)c(F)c1)OCCN(CCO)CCO [Compound I-163, 2-[bis(2-hydroxyethyl)amino]ethyl 3-{4-[(1S,4S,5R)-5-{[5-cyclopropyl-3-(2,6-dichlorophenyl)-1,2-oxazol-4-yl]methoxy}-2-azabicyclo[2.2.1]heptan-2-yl]-3-fluorophenyl}propanoate] | 7.5 | 154 | 99 | 1.26 | –
10 | O=C(NCc1nn[nH]n1)c1ccc(N2C[C@@H]3C[C@H]2C[C@H]3OCc2c(-c3c(Cl)cccc3Cl)noc2C2CC2)cc1 [Compound I-164, 4-[(1S,4S,5R)-5-{[5-cyclopropyl-3-(2,6-dichlorophenyl)-1,2-oxazol-4-yl]methoxy}-2-azabicyclo[2.2.1]heptan-2-yl]-N-(2H-1,2,3,4-tetrazol-5-ylmethyl)benzamide] | 9.7 | 148 | 118 | 79.4 | –
11 | O=C(O)CNC(=O)c1ccc(N2C[C@@H]3C[C@H]2C[C@H]3OCc2c(-c3c(Cl)cccc3Cl)noc2C2CC2)cc1 [Compound I-165, 2-({4-[(1S,4S,5R)-5-{[5-cyclopropyl-3-(2,6-dichlorophenyl)-1,2-oxazol-4-yl]methoxy}-2-azabicyclo[2.2.1]heptan-2-yl]phenyl}formamido)acetic Acid] | 8.4 | 140 | 107 | 20 | –
12 | O=C(NCCS(=O)(=O)O)c1ccc(N2C[C@@H]3C[C@H]2C[C@H]3OCc2c(-c3c(Cl)cccc3Cl)noc2C2CC2)cc1 [Compound I-166, 2-({4-[(1S,4S,5R)-5-{[5-cyclopropyl-3-(2,6-dichlorophenyl)-1,2-oxazol-4-yl]methoxy}-2-azabicyclo[2.2.1]heptan-2-yl]phenyl}formamido)ethane-1-sulfonic Acid] | 8.7 | 154 | 114 | 50.1 | –
13 | O=C(O)CNC(=O)c1ccc(N2C[C@@H]3C[C@H]2C[C@H]3OCc2c(-c3c(Cl)cccc3Cl)noc2C2CC2)cc1F [Compound I-167, 2-({4-[(1S,4S,5R)-5-{[5-cyclopropyl-3-(2,6-dichlorophenyl)-1,2-oxazol-4-yl]methoxy}-2-azabicyclo[2.2.1]heptan-2-yl]-2-fluorophenyl}formamido)acetic Acid] | 8.7 | 152 | 106 | 7.94 | –
14 | O=C(NCCS(=O)(=O)O)c1ccc(N2C[C@@H]3C[C@H]2C[C@H]3OCc2c(-c3c(Cl)cccc3Cl)noc2C2CC2)cc1F [Compound I-168, 2-({4-[(1S,4S,5R)-5-{[5-cyclopropyl-3-(2,6-dichlorophenyl)-1,2-oxazol-4-yl]methoxy}-2-azabicyclo[2.2.1]heptan-2-yl]-2-fluorophenyl}formamido)ethane-1-sulfonic Acid] | 8.6 | 164 | 107 | 100 | –
15 | CS(=O)(=O)CCNC(=O)c1ccc(N2C[C@@H]3C[C@H]2C[C@H]3OCc2c(-c3c(Cl)cccc3Cl)noc2C2CC2)cc1 [Compound I-169, 4-[(1S,4S,5R)-5-{[5-cyclopropyl-3-(2,6-dichlorophenyl)-1,2-oxazol-4-yl]methoxy}-2-azabicyclo[2.2.1]heptan-2-yl]-N-(2-methanesulfonylethyl)benzamide] | 8.4 | 160 | 106 | 1.58 | –
16 | CS(=O)(=O)CCNC(=O)c1ccc(N2C[C@@H]3C[C@H]2C[C@H]3OCc2c(-c3c(Cl)cccc3Cl)noc2C2CC2)cc1F [Compound I-170, 4-[(1S,4S,5R)-5-{[5-cyclopropyl-3-(2,6-dichlorophenyl)-1,2-oxazol-4-yl]methoxy}-2-azabicyclo[2.2.1]heptan-2-yl]-2-fluoro-N-(2-methanesulfonylethyl)benzamide] | 9.4 | 142 | 103 | 1.26 | –
17 | O=C(NCCS(=O)(=O)C1CC1)c1ccc(N2C[C@@H]3C[C@H]2C[C@H]3OCc2c(-c3c(Cl)cccc3Cl)noc2C2CC2)cc1F [Compound I-171, N-[2-(cyclopropanesulfonyl)ethyl]-4-[(1S,4S,5R)-5-{[5-cyclopropyl-3-(2,6-dichlorophenyl)-1,2-oxazol-4-yl]methoxy}-2-azabicyclo[2.2.1]heptan-2-yl]-2-fluorobenzamide] | 8.6 | 147 | 104 | 0.794 | –
18 | O=C(NCCS(=O)(=O)C1CCOCC1)c1ccc(N2C[C@@H]3C[C@H]2C[C@H]3OCc2c(-c3c(Cl)cccc3Cl)noc2C2CC2)cc1F [Compound I-172, 4-[(1S,4S,5R)-5-{[5-cyclopropyl-3-(2,6-dichlorophenyl)-1,2-oxazol-4-yl]methoxy}-2-azabicyclo[2.2.1]heptan-2-yl]-2-fluoro-N-[2-(oxane-4-sulfonyl)ethyl]benzamide] | 8.4 | 160 | 110 | 1 | –
19 | Cc1cc(C(=O)NCCP(=O)(O)O)ccc1N1C[C@@H]2C[C@H]1C[C@H]2OCc1c(-c2c(Cl)cccc2Cl)noc1C1CC1 [Compound I-173, [2-({4-[(1S,4S,5R)-5-{[5-cyclopropyl-3-(2,6-dichlorophenyl)-1,2-oxazol-4-yl]methoxy}-2-azabicyclo[2.2.1]heptan-2-yl]-3-methylphenyl}formamido)ethyl]phosphonic Acid] | 9.2 | – | 114 | 100 | 144
